Laboratory results as given in patent publication US20020137929A1, “1 - (3-heterocyclylphenyl) isothiourea, -isourea, -guanidine and -amidine herbicidal agents” (Intellectual Property Department, BASF Aktiengesellschaft, priority 1998, published 2002).

Key:
[1] = tested on: IPOHE (Morningglory, Ivyleaf); experiment: Preemergence herbicidal evaluation; assay type: in vivo, Ipomoea hederacea; conditions: rated 4-5 weeks after treatment
Outline: (§1)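 Steps: mix seeds into potting soil; plant atop ~1 inch soil; spray compound in aqueous acetone (~0.0156-0.500 kg/ha equivalent); maintain in greenhouse with watering; rate visually 0-9 versus control at 4-5 weeks.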

[2] = tested on: SAGPY (Arrowhead (Pygmaea)); experiment: Preemergence weed control under flooded paddy conditions; assay type: in vivo, Sagittaria pygmaea; conditions: rated 3-4 weeks after treatment
Outline: (§2)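 First, seeds or propagules go into the top 0.5 cm of silt loam; next, water is held 1.5 to 3 cm over the soil; then compound (50/50 acetone/water) is pipetted into it at about 0.0313 to 0.500 kg/ha; finally plants are rated visually 0-9 after three to four weeks.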

[3] = tested on: CHEAL (Lambsquarters, Common); experiment: Postemergence herbicidal evaluation; assay type: in vivo, Chenopodium album; conditions: postemergence
Outline: (§3)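 Scores (0–9) reflect plant stand, vigor, malformation, size, chlorosis and general appearance relative to control, read 4 to 5 weeks after treatment and averaged where tests were repeated. Application: about 0.0156–0.500 kg/ha sprayed at 40 psi onto two-week seedlings.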

CASOB (Sicklepod) [4] = experiment: Postemergence herbicidal evaluation; assay type: in vivo, Cassia obtusifolia; conditions: postemergence
Outline: as §3

[5] = tested on: IPOHE (Morningglory, Ivyleaf); experiment: Postemergence herbicidal evaluation; assay type: in vivo, Ipomoea hederacea; conditions: postemergence
Outline: as §3

CASOB (Sicklepod) [6] = experiment: Preemergence herbicidal evaluation; assay type: in vivo, Cassia obtusifolia; conditions: rated 4-5 weeks after treatment
Outline: as §1

[7] = tested on: GLXMAW (Soybean, Williams); experiment: Preemergence herbicidal evaluation; assay type: in vivo, Glycine max, (L.) Merr. cv Williams; conditions: rated 4-5 weeks after treatment
Outline: as §1

[8] = tested on: TRZAWR (Wheat, Winter, cv Riband); experiment: Postemergence herbicidal evaluation; assay type: in vivo, Triticum aestivum; conditions: postemergence
Outline: as §3

[9] = tested on: GLXMAW (Soybean, Williams); experiment: Postemergence herbicidal evaluation; assay type: in vivo, Glycine max, (L.) Merr. cv Williams; conditions: postemergence
Outline: as §3

AMBEL (Ragweed, Common) [10] = experiment: Preemergence herbicidal evaluation; assay type: in vivo, Ambrosia artemisifolia; conditions: rated 4-5 weeks after treatment
Outline: as §1

AMBEL (Ragweed, Common) [11] = experiment: Postemergence herbicidal evaluation; assay type: in vivo, Ambrosia artemisifolia; conditions: postemergence
Outline: as §3

ABUTH (Velvetleaf) = experiment: Preemergence herbicidal evaluation; assay type: in vivo, Abutilon theophrasti; conditions: rated 4-5 weeks after treatment
Outline: as §1

ECHCG (Barnyardgrass) = experiment: Postemergence herbicidal evaluation; assay type: in vivo, Echinochloa crus-galli; conditions: postemergence
Outline: as §3

[12] = tested on: CHEAL (Lambsquarters, Common); experiment: Preemergence herbicidal evaluation; assay type: in vivo, Chenopodium album; conditions: rated 4-5 weeks after treatment
Outline: as §1

ORYSAT (Rice, Tebonnet) = experiment: Preemergence herbicidal evaluation; assay type: in vivo, Oryza sativa, (L.) Tebonnet; conditions: rated 4-5 weeks after treatment
Outline: as §1

MOOVA (Monochoria) = experiment: Preemergence weed control under flooded paddy conditions; assay type: in vivo, Monochoria vaginalis; conditions: rated 3-4 weeks after treatment
Outline: as §2

`Cn1c(C(F)(F)F)cc(=O)n(-c2cc(N=C3SCC(=O)N3CC(F)(F)F)c(Cl)cc2F)c1=O` [Compound 163, 3-{4-Chloro-2-fluoro-5-{[4-oxo-3-(2,2,2-trifluoroethyl)-2-thiazolidinylidene]amino}phenyl}-1-methyl-6-(trifluoromethyl)-2,4(1H,3H)-pyrimidinedione] was tested, and the “Preemergence herbicidal rating IPOHE” value ([1]; 0.0156 kg/ha) was 0.0, the “Preemergence herbicidal rating IPOHE” value ([1]; 0.0313 kg/ha) was 0.0 and the “Preemergence herbicidal rating IPOHE” value ([1]; 0.0625 kg/ha) was 3.0. For the same compound, the “Preemergence herbicidal rating IPOHE” value ([1]; 0.1250 kg/ha) was 9.0, the “Preemergence herbicidal rating IPOHE” value ([1]; 0.2500 kg/ha) was 9.0 and the “herbicidal effect rating, SAGPY” value ([2]; 0.0313 kg/ha) was 2.0. The “herbicidal effect rating, SAGPY” value ([2]; 0.0625 kg/ha) was 3.0, the “herbicidal effect rating, SAGPY” value ([2]; 0.1250 kg/ha) was 6.0 and the “herbicidal effect rating, SAGPY” value ([2]; 0.2500 kg/ha) was 7.0. The “herbicidal rating CHEAL” value ([3]; rate 0.0156 kg/ha) was 9.0, the “herbicidal rating CHEAL” value ([3]; rate 0.0313 kg/ha) was 9.0 and the “herbicidal rating CHEAL” value ([3]; rate 0.0625 kg/ha) was 9.0. For the same compound, the “herbicidal rating CASOB” value (CASOB (Sicklepod) [4]; rate 0.0156 kg/ha) was 0.0, the “herbicidal rating CASOB” value (CASOB (Sicklepod) [4]; rate 0.0313 kg/ha) was 0.0 and the “herbicidal rating CASOB” value (CASOB (Sicklepod) [4]; rate 0.0625 kg/ha) was 3.0. For the same compound, the “herbicidal rating IPOHE” value ([5]; rate 0.0156 kg/ha) was 9.0, the “herbicidal rating IPOHE” value ([5]; rate 0.0313 kg/ha) was 9.0 and the “herbicidal rating IPOHE” value ([5]; rate 0.0625 kg/ha) was 9.0. The “Preemergence herbicidal rating CASOB” value (CASOB (Sicklepod) [6]; 0.0156 kg/ha) was 0.0, the “Preemergence herbicidal rating CASOB” value (CASOB (Sicklepod) [6]; 0.0313 kg/ha) was 0.0 and the “Preemergence herbicidal rating CASOB” value (CASOB (Sicklepod) [6]; 0.0625 kg/ha) was 0.0. The “Preemergence herbicidal rating CASOB” value (CASOB (Sicklepod) [6]; 0.1250 kg/ha) was 0.0, the “Preemergence herbicidal rating CASOB” value (CASOB (Sicklepod) [6]; 0.2500 kg/ha) was 5.0 and the “Preemergence herbicidal rating GLXMAW” value ([7]; 0.0156 kg/ha) was 0.0. The “Preemergence herbicidal rating GLXMAW” value ([7]; 0.0313 kg/ha) was 2.0, the “Preemergence herbicidal rating GLXMAW” value ([7]; 0.0625 kg/ha) was 3.0 and the “Preemergence herbicidal rating GLXMAW” value ([7]; 0.1250 kg/ha) was 3.0. For the same compound, the “Preemergence herbicidal rating GLXMAW” value ([7]; 0.2500 kg/ha) was 5.0, the “herbicidal rating TRZAWR” value ([8]; rate 0.0156 kg/ha) was 3.5 and the “herbicidal rating TRZAWR” value ([8]; rate 0.0313 kg/ha) was 4.0. For the same compound, the “herbicidal rating TRZAWR” value ([8]; rate 0.0625 kg/ha) was 4.5, the “herbicidal rating GLXMAW” value ([9]; rate 0.0156 kg/ha) was 6.0 and the “herbicidal rating GLXMAW” value ([9]; rate 0.0313 kg/ha) was 7.0. For the same compound, the “herbicidal rating GLXMAW” value ([9]; rate 0.0625 kg/ha) was 8.0, the “Preemergence herbicidal rating AMBEL” value (AMBEL (Ragweed, Common) [10]; 0.0156 kg/ha) was 0.0 and the “Preemergence herbicidal rating AMBEL” value (AMBEL (Ragweed, Common) [10]; 0.0313 kg/ha) was 3.0. For the same compound, the “Preemergence herbicidal rating AMBEL” value (AMBEL (Ragweed, Common) [10]; 0.0625 kg/ha) was 9.0, the “Preemergence herbicidal rating AMBEL” value (AMBEL (Ragweed, Common) [10]; 0.1250 kg/ha) was 9.0 and the “Preemergence herbicidal rating AMBEL” value (AMBEL (Ragweed, Common) [10]; 0.2500 kg/ha) was 9.0. For the same compound, the “herbicidal rating AMBEL” value (AMBEL (Ragweed, Common) [11]; rate 0.0156 kg/ha) was 9.0, the “herbicidal rating AMBEL” value (AMBEL (Ragweed, Common) [11]; rate 0.0313 kg/ha) was 9.0 and the “herbicidal rating AMBEL” value (AMBEL (Ragweed, Common) [11]; rate 0.0625 kg/ha) was 9.0. The “Preemergence herbicidal rating ABUTH” value (ABUTH (Velvetleaf); 0.0156 kg/ha) was 9.0, the “Preemergence herbicidal rating ABUTH” value (ABUTH (Velvetleaf); 0.0313 kg/ha) was 9.0 and the “Preemergence herbicidal rating ABUTH” value (ABUTH (Velvetleaf); 0.0625 kg/ha) was 9.0. The “Preemergence herbicidal rating ABUTH” value (ABUTH (Velvetleaf); 0.1250 kg/ha) was 9.0, the “Preemergence herbicidal rating ABUTH” value (ABUTH (Velvetleaf); 0.2500 kg/ha) was 9.0 and the “herbicidal rating ECHCG” value (ECHCG (Barnyardgrass); rate 0.0156 kg/ha) was 0.0. For the same compound, the “herbicidal rating ECHCG” value (ECHCG (Barnyardgrass); rate 0.0313 kg/ha) was 0.0, the “herbicidal rating ECHCG” value (ECHCG (Barnyardgrass); rate 0.0625 kg/ha) was 1.0 and the “Preemergence herbicidal rating CHEAL” value ([12]; 0.0156 kg/ha) was 9.0. For the same compound, the “Preemergence herbicidal rating CHEAL” value ([12]; 0.0313 kg/ha) was 9.0, the “Preemergence herbicidal rating CHEAL” value ([12]; 0.0625 kg/ha) was 9.0 and the “Preemergence herbicidal rating CHEAL” value ([12]; 0.1250 kg/ha) was 9.0. The “Preemergence herbicidal rating CHEAL” value ([12]; 0.2500 kg/ha) was 9.0, the “Preemergence herbicidal rating ORYSAT” value (ORYSAT (Rice, Tebonnet); 0.0156 kg/ha) was 1.0 and the “Preemergence herbicidal rating ORYSAT” value (ORYSAT (Rice, Tebonnet); 0.0313 kg/ha) was 3.0. For the same compound, the “Preemergence herbicidal rating ORYSAT” value (ORYSAT (Rice, Tebonnet); 0.0625 kg/ha) was 5.0, the “Preemergence herbicidal rating ORYSAT” value (ORYSAT (Rice, Tebonnet); 0.1250 kg/ha) was 7.0 and the “Preemergence herbicidal rating ORYSAT” value (ORYSAT (Rice, Tebonnet); 0.2500 kg/ha) was 8.0. For the same compound, the “herbicidal effect rating, MOOVA” value (MOOVA (Monochoria); 0.0313 kg/ha) was 9.0, the “herbicidal effect rating, MOOVA” value (MOOVA (Monochoria); 0.0625 kg/ha) was 9.0 and the “herbicidal effect rating, MOOVA” value (MOOVA (Monochoria); 0.1250 kg/ha) was 9.0. For the same compound, the “herbicidal effect rating, MOOVA” value (MOOVA (Monochoria); 0.2500 kg/ha) was 9.0.
